Test results: patent US11464770B2, “Anticancer pharmaceutical composition” (NATIONAL CANCER CENTER, priority 2016, dated 2022)
Read-outs that look alike come from different tables or passages of the source.

What was measured:
[1] = system: colorectal cancer cell lines (e.g. DLD-1, HCT 116, SW620, HCT-15, HCT-8, RKO); assay: Cell based assay, cell viability (CellTiter-Glo), colorectal cancer cell lines
In short: (§1)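 Read-out is ATP-dependent luminescence (CellTiter-Glo) taken after 72 h of exposure to compound at final concentrations from 0 to 2 μM. Cells were plated 24 h beforehand.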

[2] = system: ovarian cancer cell lines; assay: Cell based assay, cell viability (CellTiter-Glo), ovarian cancer cell lines; details: Homo sapiens; OVCAR-3 cells
In short: as §1

[3] = Homo sapiens, DLD-1, 72 hours treatment, read-out: IC50, colorectal cancer cell line DLD-1
[4] = Homo sapiens, HCT 116, 72 hours treatment, read-out: IC50, colorectal cancer cell line HCT 116
[5] = Homo sapiens, HCT-8, 72 hours treatment, read-out: IC50, colorectal cancer cell line HCT-8
[6] = Homo sapiens, HCT-15, 72 hours treatment, read-out: IC50, colorectal cancer cell line HCT-15
[7] = Homo sapiens, HT-29, 72 hours treatment, read-out: IC50, colorectal cancer cell line HT-29
[8] = Homo sapiens, LoVo, 72 hours treatment, read-out: IC50, colorectal cancer cell line LoVo
[9] = Homo sapiens, SW480, 72 hours treatment, read-out: IC50, colorectal cancer cell line SW480
[10] = Homo sapiens, SW-620, SW620, 72 hours treatment, read-out: IC50, colorectal cancer cell line SW620
[11] = RKO, 72 hours treatment, read-out: IC50, colorectal cancer cell line RKO

IC50 [1, 3]	IC50 [1, 4]	IC50 [1, 5]	IC50 [1, 6]	IC50 [1, 7]	IC50 [1, 8]	IC50 [1, 9]	IC50 [1, 10]	IC50 [1, 11]	IC50 [2]	SMILES
0.82 µM	1.18 µM	1.42 µM	1.25 µM	> 10 µM	> 2 µM	1.66 µM	1.35 µM	1.42 µM	0.71 µM	CC(=O)c1c([S+]([O-])Cc2ccc(F)c(Cl)c2)[nH]c2c(Br)ccc(Cl)c2c1=O (stereo not drawn) [Compound 31, 3-acetyl-8-bromo-5-chloro-2-((3-chloro-4-fluorobenzyl)sulfinyl)quinolin-4(1H)-one]
0.89 µM	1.2 µM	1.66 µM	1.48 µM	> 10 µM	> 2 µM	1.34 µM	1.45 µM	1.15 µM	0.84 µM	CC(=O)c1c([S+]([O-])Cc2cc(Cl)ccc2Cl)[nH]c2c(Br)ccc(Cl)c2c1=O (stereo not drawn) [Compound 44, 3-acetyl-8-bromo-5-chloro-2-((2,5-dichlorobenzyl)sulfinyl)quinolin-4(1H)-one]
0.99 µM	1.39 µM	1.99 µM	1.59 µM	> 10 µM	> 2 µM	> 2 µM	1.58 µM	1.77 µM	0.89 µM	CC(=O)c1c([S+]([O-])Cc2cccc(F)c2)[nH]c2c(Br)ccc(Cl)c2c1=O (stereo not drawn) [Compound 50, 3-acetyl-8-bromo-5-chloro-2-((3-fluorobenzyl)sulfinyl)quinolin-4(1H)-one]
0.8 µM	1.19 µM	1.69 µM	1.32 µM	> 10 µM	> 2 µM	> 2 µM	1.91 µM	1.53 µM	1.09 µM	CC(=O)c1c([S+]([O-])Cc2ccc(SC(F)(F)F)cc2)[nH]c2c(Br)ccc(Cl)c2c1=O (stereo not drawn) [Compound 56, 3-acetyl-8-bromo-5-chloro-2-((4-((trifluoromethyl)thio)benzyl)sulfinyl)quinolin-4(1H)-one]
> 2 µM	> 2 µM	> 2 µM	> 2 µM	> 10 µM	> 2 µM	> 2 µM	> 2 µM	> 2 µM	> 2 µM	CC(=O)c1c([S+]([O-])Cc2ccc([N+](=O)[O-])cc2)[nH]c2c(Cl)ccc(Cl)c2c1=O (stereo not drawn) [Compound 57, 3-acetyl-5,8-dichloro-2-((4-nitrobenzyl)sulfinyl)quinolin-4(1H)-one]
1.48 µM	1.94 µM	> 2 µM	1.8 µM	> 10 µM	> 2 µM	> 2 µM	> 2 µM	> 2 µM	> 2 µM	CC(=O)c1c([S+]([O-])Cc2ccc(C(C)(C)C)cc2)[nH]c2c(Br)ccc(Cl)c2c1=O (stereo not drawn) [Compound 60, 3-acetyl-8-bromo-2-((4-(tert-butyl)benzyl)sulfinyl)-5-chloroquinolin-4(1H)-one]
–	1.37 µM	1.63 µM	1.36 µM	> 10 µM	> 2 µM	> 2 µM	1.65 µM	1.69 µM	0.9 µM	CC(=O)c1c([S+]([O-])Cc2ccc([S+]([O-])C(F)(F)F)cc2)[nH]c2c(Br)ccc(Cl)c2c1=O (stereo not drawn) [Compound 64, 3-acetyl-8-bromo-5-chloro-2-((4-((trifluoromethyl)sulfinyl)benzyl)sulfinyl)quinolin-4(1H)-one]
0.92 µM	1.32 µM	1.54 µM	1.19 µM	> 10 µM	> 2 µM	> 2 µM	1.71 µM	1.63 µM	1.18 µM	CC(=O)c1c([S+]([O-])Cc2ccc(C(F)(F)F)cc2)[nH]c2c(Br)ccc(Cl)c2c1=O (stereo not drawn) [Compound 70, 3-acetyl-8-bromo-5-chloro-2-((4-(trifluoromethyl)benzyl)sulfinyl)quinolin-4(1H)-one]
1.15 µM	1.73 µM	> 2 µM	1.62 µM	> 10 µM	> 2 µM	> 2 µM	> 2 µM	> 2 µM	1.31 µM	CC(=O)c1c([S+]([O-])Cc2ccc(OC(F)(F)F)cc2)[nH]c2c(Br)ccc(Cl)c2c1=O (stereo not drawn) [Compound 71, 3-acetyl-8-bromo-5-chloro-2-((4-(trifluoromethoxy)benzyl)sulfinyl)quinolin-4(1H)-one]
1.33 µM	1.86 µM	> 2 µM	> 2 µM	> 10 µM	> 2 µM	> 2 µM	> 2 µM	> 2 µM	1.11 µM	CC(=O)c1c([S+]([O-])Cc2ccc(C#N)cc2)[nH]c2c(Br)ccc(Cl)c2c1=O (stereo not drawn) [Compound 73, 4-(((3-acetyl-8-bromo-5-chloro-4-oxo-1,4-dihydroquinolin-2-yl)sulfinyl)methyl)benzonitrile]

More lines, now with the values behind:

SMILES	IC50 [1, 3]	IC50 [1, 4]	IC50 [1, 5]	IC50 [1, 6]	IC50 [1, 7]	IC50 [1, 8]	IC50 [1, 9]	IC50 [1, 10]	IC50 [1, 11]	IC50 [2]
CC(=O)c1c([S+]([O-])Cc2ccc(F)cc2F)[nH]c2c(Br)ccc(Cl)c2c1=O (stereo not drawn) [Compound 29, 3-acetyl-8-bromo-5-chloro-2-((2,4-difluorobenzyl)sulfinyl)quinolin-4(1H)-one]	0.87 µM	1.21 µM	1.71 µM	1.4 µM	> 10 µM	> 2 µM	> 2 µM	1.38 µM	1.57 µM	0.8 µM
CC(=O)c1c([S+]([O-])Cc2ccc([N+](=O)[O-])cc2)[nH]c2c(Br)ccc(Cl)c2c1=O (stereo not drawn) [Compound 33, 3-acetyl-8-bromo-5-chloro-2-((4-nitrobenzyl)sulfinyl)quinolin-4(1H)-one]	0.94 µM	1.33 µM	1.65 µM	1.53 µM	> 10 µM	> 2 µM	> 2 µM	1.51 µM	1.5 µM	1.18 µM
CC(=O)c1c(S(=O)(=O)Cc2ccccc2)[nH]c2c(Br)ccc(Cl)c2c1=O [Compound 34, 3-acetyl-2-(benzylsulfonyl)-8-bromo-5-chloroquinolin-4(1H)-one]	1.32 µM	1.84 µM	> 2 µM	1.95 µM	> 10 µM	> 2 µM	> 2 µM	1.87 µM	> 2 µM	0.99 µM
CC(=O)c1c([S+]([O-])Cc2cc(F)cc(F)c2)[nH]c2c(Br)ccc(Cl)c2c1=O (stereo not drawn) [Compound 46, 3-acetyl-8-bromo-5-chloro-2-((3,5-difluorobenzyl)sulfinyl)quinolin-4(1H)-one]	1.26 µM	1.82 µM	> 2 µM	1.94 µM	> 10 µM	> 2 µM	> 2 µM	1.75 µM	1.83 µM	1.02 µM
CC(=O)c1c([S+]([O-])Cc2cc(C)on2)[nH]c2c(Br)ccc(Cl)c2c1=O (stereo not drawn) [Compound 51, 3-acetyl-8-bromo-5-chloro-2-(((5-methylisoxazol-3-yl)methyl)sulfinyl)quinolin-4(1H)-one]	0.66 µM	0.84 µM	1.21 µM	1.01 µM	> 10 µM	1.64 µM	0.95 µM	1 µM	1.1 µM	0.85 µM
COc1cccc(C[S+]([O-])c2[nH]c3c(Br)ccc(Cl)c3c(=O)c2C(C)=O)c1 (stereo not drawn) [Compound 55, 3-acetyl-8-bromo-5-chloro-2-((3-methoxybenzyl)sulfinyl)quinolin-4(1H)-one]	1.15 µM	1.81 µM	> 2 µM	1.81 µM	> 10 µM	> 2 µM	> 2 µM	1.91 µM	> 2 µM	0.92 µM
COc1cc(C[S+]([O-])c2[nH]c3c(Br)ccc(Cl)c3c(=O)c2C(C)=O)cc(OC)c1 (stereo not drawn) [Compound 59, 3-acetyl-8-bromo-5-chloro-2-((3,5-dimethoxybenzyl)sulfinyl)quinolin-4(1H)-one]	0.89 µM	1.11 µM	1.5 µM	1.27 µM	> 10 µM	> 2 µM	> 2 µM	1.35 µM	1.56 µM	0.84 µM
CC(=O)c1c([S+]([O-])Cc2ccc(C(F)(F)F)o2)[nH]c2c(Br)ccc(Cl)c2c1=O (stereo not drawn) [Compound 72, 3-acetyl-8-bromo-5-chloro-2-(((5-(trifluoromethyl)furan-2-yl)methyl)sulfinyl)quinolin-4(1H)-one]	0.74 µM	0.94 µM	1.24 µM	0.99 µM	> 2 µM	1.92 µM	1.41 µM	1.24 µM	1.35 µM	0.73 µM
CC(=O)c1c([S+]([O-])Cc2c(F)cccc2Cl)[nH]c2c(Br)ccc(Cl)c2c1=O (stereo not drawn) [Compound 74, 3-acetyl-8-bromo-5-chloro-2-((2-chloro-6-fluorobenzyl)sulfinyl)quinolin-4(1H)-one]	1.02 µM	1.61 µM	2.01 µM	1.53 µM	> 10 µM	> 2 µM	> 2 µM	1.77 µM	> 2 µM	0.98 µM
COc1cc(S(F)(F)(F)(F)F)ccc1C[S+]([O-])c1[nH]c2c(Br)ccc(Cl)c2c(=O)c1C(C)=O (stereo not drawn) [Compound 75, 3-acetyl-8-bromo-5-chloro-2-((2-methoxy-4-(pentafluoro--sulfanyl)benzyl)sulfinyl)quinolin-4(1H)-one]	0.88 µM	1.25 µM	1.78 µM	1.39 µM	> 10 µM	> 2 µM	1.66 µM	1.76 µM	1.32 µM	1.36 µM
CC(=O)c1c([S+]([O-])Cc2cc(F)cc(S(F)(F)(F)(F)F)c2)[nH]c2c(Br)ccc(Cl)c2c1=O (stereo not drawn) [Compound 76, 3-acetyl-8-bromo-5-chloro-2-((3-fluoro-5-(pentafluoro--sulfanyl)benzyl)sulfinyl)quinolin-4(1H)-one]	1.09 µM	1.57 µM	> 2 µM	1.64 µM	> 10 µM	> 2 µM	> 2 µM	> 2 µM	1.52 µM	1.46 µM
CC(=O)c1c([S+]([O-])Cc2c(F)c(F)c(F)c(F)c2F)[nH]c2c(Br)ccc(Cl)c2c1=O (stereo not drawn) [Compound 78, 3-acetyl-8-bromo-5-chloro-2-(((perfluorophenyl)methyl)sulfinyl)quinolin-4(1H)-one]	1.28 µM	1.93 µM	> 2 µM	1.59 µM	> 10 µM	> 2 µM	> 2 µM	1.76 µM	1.5 µM	1.01 µM
